Measured values taken from patent US20040024024A1, “Aromatic sulfone hydroxamates and their use as protease inhibitors” (priority 2001, published 2004).

Assays:
Assay in all cases: In vitro MMP inhibition, IC50 determination (fluorogenic substrate I)
Format in all cases: biochemical
Human recombinant MMP-14 = molecular target: T1, Human recombinant MMP-14 (Homo sapiens, UniProt P50281)
T1 construct: The catalytic domain enzyme was expressed in E. coli inclusion bodies, solubilized in urea; made in house
Procedure, shortened: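 IC50 came from reduced fluorescence (ex 328 nm, em 415 nm) as inhibitor concentration rose, with 4 μM substrate I cleaved at Gly-Leu. Room-temperature incubation in pH 7.5 Tris buffer with 10 mM CaCl2; the E. coli-expressed, refolded MMP-14 catalytic domain was activated with trypsin or APMA.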

Human recombinant MMP-2 = molecular target: T2, Human recombinant MMP-2 (Homo sapiens, UniProt P08253)
T2 construct: made in house; host or cells: MMP-2-transfected p2AHT2 cells
T2 sequence (P08253 110-660): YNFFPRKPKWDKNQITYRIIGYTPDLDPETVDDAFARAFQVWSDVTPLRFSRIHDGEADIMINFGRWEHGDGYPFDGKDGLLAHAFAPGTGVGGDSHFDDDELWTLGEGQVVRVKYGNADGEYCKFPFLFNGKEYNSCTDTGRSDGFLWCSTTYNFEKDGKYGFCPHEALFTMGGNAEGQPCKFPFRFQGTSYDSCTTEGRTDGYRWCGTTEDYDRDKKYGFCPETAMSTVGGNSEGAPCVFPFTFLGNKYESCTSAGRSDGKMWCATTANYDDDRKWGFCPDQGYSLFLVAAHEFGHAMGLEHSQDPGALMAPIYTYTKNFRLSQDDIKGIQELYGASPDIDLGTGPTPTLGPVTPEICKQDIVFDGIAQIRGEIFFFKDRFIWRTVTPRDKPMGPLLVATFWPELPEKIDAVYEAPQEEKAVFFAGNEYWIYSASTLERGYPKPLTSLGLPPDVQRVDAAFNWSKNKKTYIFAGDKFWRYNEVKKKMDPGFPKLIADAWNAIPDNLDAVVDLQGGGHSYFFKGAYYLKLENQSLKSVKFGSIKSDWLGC
Procedure, shortened: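 IC50 was derived from the concentration-dependent fall in fluorescence (ex 328, em 415 nm) on Gly-Leu cleavage of 4 μM MCA/Dpa-quenched substrate I. Assays ran at room temperature in pH 7.5 Tris/NaCl/CaCl2/Brij buffer with MMP-2 activated by trypsin or APMA; inhibitors were diluted from 1% DMSO stocks.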

Human recombinant MMP-1 = molecular target: T3, Human recombinant MMP-1 (Homo sapiens, UniProt P03956)
T3 construct: made in house; host or cells: MMP-1-transfected HT-1080 cells (spent media)
T3 sequence (P03956 100-469): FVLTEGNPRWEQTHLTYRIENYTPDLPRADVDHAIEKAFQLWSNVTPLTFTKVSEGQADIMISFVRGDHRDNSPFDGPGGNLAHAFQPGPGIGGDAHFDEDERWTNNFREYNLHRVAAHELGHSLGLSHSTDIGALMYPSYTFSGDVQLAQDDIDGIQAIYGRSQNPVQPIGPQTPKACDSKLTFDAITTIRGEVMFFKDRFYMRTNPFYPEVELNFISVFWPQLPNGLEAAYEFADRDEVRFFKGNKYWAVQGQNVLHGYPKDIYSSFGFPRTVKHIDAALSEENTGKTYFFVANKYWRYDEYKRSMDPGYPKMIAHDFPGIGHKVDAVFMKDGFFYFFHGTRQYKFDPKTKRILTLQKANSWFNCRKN
Procedure, shortened: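 Inhibitor dilutions were made in 100 mM Tris-HCl/100 mM NaCl/10 mM CaCl2 buffer, pH 7.5, and incubated at room temperature with activated proenzyme (from transfected HT-1080 media; APMA or trypsin) and 4 μM quenched methoxycoumarin peptide substrate. Loss of 415 nm fluorescence (328 nm excitation) against concentration gave IC50.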

Human recombinant MMP-13 = molecular target: T4, Human recombinant MMP-13 (Homo sapiens, UniProt P45452)
T4 construct: made in house; host or cells: baculovirus / insect cells
Procedure, shortened: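 Fluorescence at 415 nm (excitation 328 nm) reports Gly-Leu cleavage of 4 μM quenched methoxycoumarin peptide substrate I. Human recombinant MMP-13, activated by trypsin or APMA, was incubated at room temperature with varied inhibitor concentrations in pH 7.5 Tris/NaCl/CaCl2 buffer; IC50 derived from reduced fluorescence.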

Human recombinant MMP-9 = molecular target: T5, Human recombinant MMP-9 (Homo sapiens, UniProt P14780)
T5 construct: made in house; host or cells: MMP-9-transfected HT1080 cells (spent media)
Procedure, shortened: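 Reduction in fluorescence (328 nm excitation, 415 nm emission) from cleavage of 4 μM quenched peptide substrate I, measured at room temperature against inhibitor concentration, gave IC50. Enzyme: trypsin- or APMA-activated MMP-9 purified from transfected HT1080 medium; buffer 100 mM Tris, 100 mM NaCl, 10 mM CaCl2, pH 7.5.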

[1] = value outside parentheses (Ki in parenthesis)
[2] = substrate (I) 4 μM, room temperature, values not in parenthesis

T5 sequence (P14780 107-707 limits assumed): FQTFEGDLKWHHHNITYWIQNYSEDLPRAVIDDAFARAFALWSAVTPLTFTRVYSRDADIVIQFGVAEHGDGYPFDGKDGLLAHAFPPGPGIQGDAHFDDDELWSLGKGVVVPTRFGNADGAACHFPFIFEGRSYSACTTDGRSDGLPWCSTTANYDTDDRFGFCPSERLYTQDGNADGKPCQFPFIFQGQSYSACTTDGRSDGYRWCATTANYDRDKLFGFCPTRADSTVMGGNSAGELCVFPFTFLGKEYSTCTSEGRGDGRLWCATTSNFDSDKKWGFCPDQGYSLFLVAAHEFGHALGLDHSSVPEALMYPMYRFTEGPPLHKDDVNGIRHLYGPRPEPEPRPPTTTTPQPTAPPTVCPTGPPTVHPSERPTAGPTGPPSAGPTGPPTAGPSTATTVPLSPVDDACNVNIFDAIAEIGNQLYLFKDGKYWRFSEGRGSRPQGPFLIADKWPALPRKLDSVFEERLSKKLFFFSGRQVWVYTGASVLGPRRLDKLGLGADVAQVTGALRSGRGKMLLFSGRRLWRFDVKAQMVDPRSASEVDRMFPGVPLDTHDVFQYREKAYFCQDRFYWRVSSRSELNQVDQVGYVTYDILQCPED

Row | SMILES | IC50 (Human recombinant MMP-14; [1]) [nM] | IC50 (Human recombinant MMP-2; [1]) [nM] | IC50 (Human recombinant MMP-1; [1]) [nM] | IC50 (Human recombinant MMP-13; [1]) [nM] | IC50 (Human recombinant MMP-9; [1]) [nM] | IC50 (Human recombinant MMP-14; value outside parenthesis) [nM] | IC50 (Human recombinant MMP-2; value outside parenthesis) [nM] | IC50 (Human recombinant MMP-1; value outside parenthesis) [nM] | IC50 (Human recombinant MMP-13; value outside parenthesis) [nM] | IC50 (Human recombinant MMP-9; value outside parenthesis) [nM] | also measured
1 | CN(C)c1ccc(C(=O)NCCCOc2ccc(S(=O)(=O)C3(C(=O)NO)CCOCC3)cc2)cc1 [Example 361] | > 10000 | 500 | 6000 | 0.5 | > 10000 |  |  |  |  |  | 
2 | O=C(NO)C1(S(=O)(=O)c2ccc(OCCCc3cccc(C4CCCCN4)c3)cc2)CCN(C2CC2)CC1 (centres unmarked) [Example 609] |  |  |  |  |  |  |  |  |  |  | IC50 (Human recombinant MMP-14; value outside parentheses): > 10000 nM; IC50 (Human recombinant MMP-2; value outside parentheses): 580 nM; IC50 (Human recombinant MMP-1; value outside parentheses): > 10000 nM; IC50 (Human recombinant MMP-13; value outside parentheses): 7.7 nM; IC50 (Human recombinant MMP-9; value outside parentheses): 6890 nM
3 | Cc1cc(C(=O)CCCCOc2ccc(S(=O)(=O)C3(C(=O)NO)CCOCC3)cc2)ccc1OC(C)C [Example 340] | > 10000 | 253 | > 10000 | 1.9 | 5590 |  |  |  |  |  | 
4 | CCOc1ccccc1-c1noc(CCCOc2ccc(S(=O)(=O)C3(C(=O)NO)CCOCC3)cc2)n1 [Example 264] |  |  |  |  |  | > 10000 | 163 | > 10000 | 5.3 | 287 | 
5 | O=C(NO)C1(S(=O)(=O)c2ccc(OCCOCc3ccncc3)cc2)CCOCC1 [Example 516] |  |  |  |  |  |  |  |  |  |  | IC50 (Human recombinant MMP-14; value outside parentheses): 9430 nM; IC50 (Human recombinant MMP-2; value outside parentheses): 41.9 nM; IC50 (Human recombinant MMP-1; value outside parentheses): > 10000 nM; IC50 (Human recombinant MMP-13; value outside parentheses): 9.55 nM; IC50 (Human recombinant MMP-9; value outside parentheses): 120 nM
6 | O=C(NO)C1(S(=O)(=O)c2ccc(OCCCS(=O)(=O)N3CCc4ccccc4C3)cc2)CCOCC1 [Example 332] | > 10000 | 3.6 | 2460 | 2.6 | 132 |  |  |  |  |  | 
7 | Cc1ccccc1-c1nnc(CCCOc2ccc(S(=O)(=O)C3(C(=O)NO)CCOCC3)cc2)o1 [Example 32, tetrahydro-N-hydroxy-4-[[4-[3-[5-(2-methylphenyl)-1,3,4-oxadiazol-2-yl]propoxy]phenyl]sulfonyl]-2H-pyran-4-carboxamide] |  |  |  |  |  |  |  |  |  |  | IC50 (Human recombinant MMP-14; [2]): > 10000 nM; IC50 (Human recombinant MMP-2; [2]): 218 nM; IC50 (Human recombinant MMP-1; [2]): > 10000 nM; IC50 (Human recombinant MMP-13; [2]): 0.8 nM; IC50 (Human recombinant MMP-9; [2]): 4080 nM
8 | CCCC(C)C(=O)NCCCOc1ccc(S(=O)(=O)C2(C(=O)NO)CCOCC2)cc1 (centres unmarked) [Example 403] | > 10000 | 454 | > 10000 | 5.2 | > 10000 |  |  |  |  |  | 
9 | CCCCOc1ccc(C(=O)NCCCOc2ccc(S(=O)(=O)C3(C(=O)NO)CCOCC3)cc2)cc1 [Example 364] | > 10000 | 250 | > 10000 | 1.8 | > 10000 |  |  |  |  |  | 
10 | CN(C(=O)CCCOc1ccc(S(=O)(=O)C2(C(=O)NO)CCOCC2)cc1)c1ccccc1 [Example 654] |  |  |  |  |  |  |  |  |  |  | IC50 (Human recombinant MMP-14; value outside parentheses): > 10000 nM; IC50 (Human recombinant MMP-2; value outside parentheses): 160 nM; IC50 (Human recombinant MMP-1; value outside parentheses): > 10000 nM; IC50 (Human recombinant MMP-13; value outside parentheses): 0.55 nM; IC50 (Human recombinant MMP-9; value outside parentheses): 970 nM
11 | COc1ccccc1-c1nnc(CCCOc2ccc(S(=O)(=O)C3(C(=O)NO)CCOCC3)cc2)o1 [Example 220] |  |  |  |  |  | > 10000 | 410 | > 10000 | 5.7 | 1470 | 
12 | O=C(NO)C1(S(=O)(=O)c2ccc(OCCCc3nnc(-c4ccc(-c5ccccc5)cc4)o3)cc2)CCOCC1 [Example 257] |  |  |  |  |  | > 10000 | 174 | > 10000 | 0.5 | 6230 | 
13 | O=C(NO)C1(S(=O)(=O)c2ccc(OCCCc3nnc(-c4ccc(Cl)cc4)o3)cc2)CCOCC1 [Example 260] |  |  |  |  |  | > 10000 | 13.2 | 1160 | 1.8 | 391 | 
14 | COCCN1CCC(C(=O)NO)(S(=O)(=O)c2ccc(OCCCn3nnc(-c4ccc(SC)cc4)n3)cc2)CC1 [Example 130] |  |  |  |  |  | 500 | 4.7 | 4610 | 0.3 | 50.2 | 
15 | O=C(NO)C1(S(=O)(=O)c2ccc(OCCCO)cc2)CCOCC1 [Example 449] | 58 | 3.7 | 1930 | 7 | 41 |  |  |  |  |  | 
16 | C/C(=C\c1ccccc1)COc1ccc(S(=O)(=O)C2(C(=O)NO)CCOCC2)cc1 [Example 479] | 2000 | 4 | 2700 | 3 | 14 |  |  |  |  |  | 
17 | COCCN1CCC(C(=O)NO)(S(=O)(=O)c2ccc(OCCCn3nnc(-c4ccc(C(F)(F)F)cc4)n3)cc2)CC1 [Example 103] |  |  |  |  |  | > 10000 | 85.8 | > 10000 | 0.4 | 1130 | 
18 | O=C(NO)C1(S(=O)(=O)c2ccc(OCCCS(=O)(=O)NC34CC5CC(CC(C5)C3)C4)cc2)CCOCC1 [Example 645] |  |  |  |  |  |  |  |  |  |  | IC50 (Human recombinant MMP-14; value outside parentheses): > 10000 nM; IC50 (Human recombinant MMP-2; value outside parentheses): 22.9 nM; IC50 (Human recombinant MMP-1; value outside parentheses): 9280 nM; IC50 (Human recombinant MMP-13; value outside parentheses): 4.3 nM; IC50 (Human recombinant MMP-9; value outside parentheses): 1730 nM
19 | O=C(NO)C1(S(=O)(=O)c2ccc(OCCCS(=O)(=O)C3CCCCC3)cc2)CCOCC1 [Example 293] | > 10000 | 2.3 | 6150 | 2.6 | 448 |  |  |  |  |  | 
20 | CCCC(CCOc1ccc(S(=O)(=O)C2(C(=O)NO)CCOCC2)cc1)SC (centres unmarked) [Example 475] | 3600 | 30 | > 10000 | 2 | 120 |  |  |  |  |  | 
21 | CC1CC(C)CN(S(=O)(=O)CCCOc2ccc(S(=O)(=O)C3(C(=O)NO)CCOCC3)cc2)C1 (centres unmarked) [Example 271] |  |  |  |  |  | > 10000 | 8.7 | > 10000 | 2.9 | 532 | 
22 | O=C(NO)C1(S(=O)(=O)c2ccc(OCCCOc3ccc(C(F)(F)F)cc3)cc2)CCN(C2CC2)CC1 [Example 319] | 4220 | 5.8 | > 10000 | 1 | 258 |  |  |  |  |  | 
